From ChEMBL document CHEMBL5303304, “EUbOPEN Chemogenomics Library - IncuCyte” (2023) come the findings set out here.

Common to all, as to type: toxicity, cell-based
Series [1] deals with HEK-293T. The series can be described thus: Incucyte cell viability with HEK293T. Particulars: human, 10 µM, compound concentration 10 uM.
Series [2] deals with U2OS. The series can be described thus: Incucyte cell viability with U2OS. Particulars: human, 10 µM, compound concentration 10 uM.
Series [3] concerns Fibroblast. The series is described as follows: Incucyte cell viability with human fibroblast. Particulars: 10 µM, compound concentration 10 uM.
Also: unitless GR value; below 1 slowed growth and below 0 cell loss.

With `CN[C@@H]1CC[C@@H](c2ccc(Cl)c(Cl)c2)c2ccccc21.Cl`, the “Growth Rate” value in series [1] (0 h, replicate number 2) is given as -1; in series [1] (6 h, replicate number 1), 0; in series [1] (6 h, replicate number 2) it was -0.43; in series [1] (12 h, replicate number 1), 0.01; in series [1] (12 h, replicate number 2) it was -0.18; in series [1] (18 h, replicate number 1), 0.17. The “Growth Rate” value is -0.04 in series [1] (18 h, replicate number 2); 0.2 in series [1] (24 h, replicate number 1); 0.07 in series [1] (24 h, replicate number 2); -0.9 in series [2] (0 h, replicate number 1); 0.34 in series [2] (0 h, replicate number 2); 0.8 in series [2] (6 h, replicate number 1). In addition, the “Growth Rate” value is reported as 0.35 in series [2] (6 h, replicate number 2); 0.75 in series [2] (12 h, replicate number 1); 0.04 in series [2] (12 h, replicate number 2); 0.81 in series [2] (18 h, replicate number 1); 0.41 in series [2] (18 h, replicate number 2); 0.85 in series [2] (24 h, replicate number 1). Besides, the “Growth Rate” value was 0.45 in series [2] (24 h, replicate number 2); -0.46 in series [3] (6 h, replicate number 1); -0.24 in series [3] (12 h, replicate number 1); -0.45 in series [3] (12 h, replicate number 2); -0.26 in series [3] (18 h, replicate number 1); -0.33 in series [3] (18 h, replicate number 2). The “Growth Rate” value in series [3] (24 h, replicate number 1) is on record as -0.06; in series [3] (24 h, replicate number 2) it was -0.2.
For the compound `O=C(O)/C=C/c1ccc(Cn2ccnc2)cc1` [OZAGREL], the “Growth Rate” value in series [1] (0 h, replicate number 1) is given as 0.5; in series [1] (0 h, replicate number 2), 0.4; in series [1] (12 h, replicate number 2) it was 0.92; in series [1] (18 h, replicate number 1), 0.96; in series [2] (0 h, replicate number 2) it was 0.65; in series [2] (6 h, replicate number 1), 0.91. The “Growth Rate” value in series [2] (12 h, replicate number 2) was 0.94; in series [2] (24 h, replicate number 1), 0.94; in series [3] (0 h, replicate number 1) it was -1; in series [3] (0 h, replicate number 2), -0.85; in series [3] (18 h, replicate number 1), 0.97; in series [3] (24 h, replicate number 1), 0.78.
In the case of `CN(C)CCCn1cc(C2=C(c3c[nH]c4ccccc34)C(=O)NC2=O)c2ccccc21` [GF-109203], the “Growth Rate” value in series [1] (0 h, replicate number 1) is reported as -0.26; in series [1] (0 h, replicate number 2), -0.46; in series [1] (12 h, replicate number 2), 0.81; in series [1] (18 h, replicate number 2) it was 0.99; in series [1] (24 h, replicate number 2), 0.98; in series [2] (0 h, replicate number 1), -0.01. Moreover, the “Growth Rate” value in series [2] (18 h, replicate number 1) is reported as 0.94; in series [2] (24 h, replicate number 1), 0.8; in series [2] (24 h, replicate number 2) it was 0.82; in series [3] (0 h, replicate number 2) it was -0.49; in series [3] (6 h, replicate number 1) it was -0.72; in series [3] (12 h, replicate number 1), -1. Besides, the “Growth Rate” value in series [3] (18 h, replicate number 2) worked out at 0.65; in series [3] (24 h, replicate number 2), 0.41.
Regarding `COc1cc(N2CCN(C)CC2)ccc1Nc1ncc2c(n1)N(C)c1ccccc1C(=O)N2CC(F)(F)F`, the “Growth Rate” value in series [1] (6 h, replicate number 1) is -0.03; in series [1] (6 h, replicate number 2) it was 0; in series [1] (12 h, replicate number 1) it was 0.26; in series [1] (12 h, replicate number 2), 0.22; in series [1] (18 h, replicate number 1), 0.22; in series [1] (18 h, replicate number 2), 0.29. In addition, the “Growth Rate” value in series [1] (24 h, replicate number 1) was 0.27; in series [1] (24 h, replicate number 2), 0.36; in series [2] (6 h, replicate number 2), 0.9; in series [2] (12 h, replicate number 1) it was 0.97; in series [2] (18 h, replicate number 1), 0.99; in series [2] (18 h, replicate number 2), 0.87. The “Growth Rate” value in series [2] (24 h, replicate number 2) is given as 0.83; in series [3] (6 h, replicate number 1), 0.44; in series [3] (6 h, replicate number 2), 0.47; in series [3] (12 h, replicate number 1), 0.43; in series [3] (12 h, replicate number 2), 0.51; in series [3] (18 h, replicate number 1), 0.09. Moreover, the “Growth Rate” value in series [3] (18 h, replicate number 2) is recorded as 0.31; in series [3] (24 h, replicate number 1), -0.1; in series [3] (24 h, replicate number 2), 0.08.
For the compound `COc1cc(F)ccc1-c1cc(Nc2cc(CS(C)(=N)=O)ccn2)ncc1F` (stereo not drawn) [ENITOCICLIB], the “Growth Rate” value is recorded as -1 in series [1] (0 h, replicate number 1); 0.31 in series [1] (0 h, replicate number 2); 0.19 in series [1] (6 h, replicate number 1); -0.19 in series [1] (6 h, replicate number 2); -0.15 in series [1] (12 h, replicate number 1); -0.41 in series [1] (12 h, replicate number 2). The “Growth Rate” value in series [1] (18 h, replicate number 1) is -0.19; in series [1] (18 h, replicate number 2) it was -0.4; in series [1] (24 h, replicate number 1) it was -0.17; in series [1] (24 h, replicate number 2), -0.34; in series [2] (0 h, replicate number 1), -1; in series [2] (6 h, replicate number 2) it was 0.69. Also, the “Growth Rate” value in series [2] (12 h, replicate number 1) was 0.57; in series [2] (12 h, replicate number 2), 0.36; in series [2] (18 h, replicate number 1), 0.29; in series [2] (18 h, replicate number 2), 0.3; in series [2] (24 h, replicate number 1) it was 0.27; in series [2] (24 h, replicate number 2), 0.14. Further, the “Growth Rate” value in series [3] (0 h, replicate number 1) was -1; in series [3] (18 h, replicate number 2), 0.96; in series [3] (24 h, replicate number 2), 0.69.
In the case of `O=C(O)Cc1cc(I)c(Oc2ccc(O)c(I)c2)c(I)c1` [TIRATRICOL], the “Growth Rate” value in series [1] (0 h, replicate number 1) is listed as 0.25; in series [1] (0 h, replicate number 2), -0.35; in series [1] (12 h, replicate number 2) it was 0.66; in series [1] (18 h, replicate number 1) it was 0.92; in series [1] (18 h, replicate number 2), 0.7; in series [1] (24 h, replicate number 1), 1. The “Growth Rate” value is 0.69 in series [1] (24 h, replicate number 2); 0.77 in series [2] (6 h, replicate number 1); -0.73 in series [2] (12 h, replicate number 1); 0.97 in series [2] (18 h, replicate number 1); 0.96 in series [2] (18 h, replicate number 2); 0.9 in series [2] (24 h, replicate number 2). Also, the “Growth Rate” value in series [3] (0 h, replicate number 1) worked out at 0.68; in series [3] (6 h, replicate number 1), 0.72; in series [3] (6 h, replicate number 2) it was 0.26; in series [3] (12 h, replicate number 2) it was 0.55; in series [3] (18 h, replicate number 2), 0.7; in series [3] (24 h, replicate number 1), 0.92. Also, the “Growth Rate” value in series [3] (24 h, replicate number 2) is reported as 0.76.
As to `CCN1C(=CC(C)=O)Sc2ccc(OC)cc21`, the “Growth Rate” value in series [1] (0 h, replicate number 1) was 0.95; in series [1] (0 h, replicate number 2) it was 0.69; in series [1] (6 h, replicate number 1) it was 0.07; in series [1] (6 h, replicate number 2), 0.47; in series [1] (12 h, replicate number 1), 0.47; in series [1] (12 h, replicate number 2), 0.28. Besides, the “Growth Rate” value in series [1] (18 h, replicate number 1) is reported as 0.25; in series [1] (18 h, replicate number 2), 0.43; in series [1] (24 h, replicate number 1), 0.2; in series [1] (24 h, replicate number 2), 0.46; in series [2] (12 h, replicate number 2) it was 0.9; in series [3] (0 h, replicate number 1), 0.98. The “Growth Rate” value in series [3] (0 h, replicate number 2) stood at 0.16; in series [3] (6 h, replicate number 2), 0.95.
As for `CN(C(=O)c1cnn2cccnc12)c1cc2c(cc1N1CCOCC1)C(=O)N(C[C@@H](F)C(C)(C)O)C2`, the “Growth Rate” value in series [1] (0 h, replicate number 1) stood at 0.82; in series [1] (0 h, replicate number 2), 0.66; in series [1] (6 h, replicate number 2) it was 0.77; in series [1] (12 h, replicate number 2), 0.85; in series [1] (18 h, replicate number 2) it was 1; in series [1] (24 h, replicate number 2), 0.92. Besides, the “Growth Rate” value is on record as 0.99 in series [2] (0 h, replicate number 1); 0.54 in series [2] (6 h, replicate number 1); 0.75 in series [2] (6 h, replicate number 2); 0.98 in series [2] (12 h, replicate number 1); -0.78 in series [2] (12 h, replicate number 2); 0.75 in series [2] (18 h, replicate number 1). Moreover, the “Growth Rate” value in series [2] (18 h, replicate number 2) was found to be 0.92; in series [2] (24 h, replicate number 2), 0.85; in series [3] (0 h, replicate number 2) it was 0.71; in series [3] (6 h, replicate number 1), 0.38; in series [3] (6 h, replicate number 2), 0.95; in series [3] (12 h, replicate number 1), 0.84. The “Growth Rate” value in series [3] (12 h, replicate number 2) was found to be 0.89; in series [3] (18 h, replicate number 1) it was 0.7; in series [3] (24 h, replicate number 1), 0.82.
